According to the NIST ThermoML archive (doi:10.1021/je9001575):

Tests used:
[1] = Crystal; Adiabatic calorimetry
[2] = Molar enthalpy of transition or fusion; settings: Crystal; Adiabatic calorimetry
[3] = molar heat capacity at saturation pressure; settings: Liquid, Vacuum adiabatic calorimetry

CC(C)C [2-methylpropane]
Settings | Molar enthalpy of transition or fusion [kcal/mol] | Triple point temperature [K]
[1] | – | 113.71
[2] | 1.074 | –

[3]
Settings | molar heat capacity [J/K/mol]
116.8 K | 99.97
119.57 K | 100.39
122.23 K | 100.86
124.96 K | 101.19
127.55 K | 101.83
130.24 K | 102.1
132.77 K | 102.54
135.42 K | 103.17
137.9 K | 103.68
140.51 K | 103.94
142.95 K | 104.41
145.52 K | 104.91
147.92 K | 105.3
150.47 K | 105.75
152.83 K | 106.16
155.34 K | 106.5
157.66 K | 107.02
160.15 K | 107.18
162.44 K | 107.78
164.89 K | 108.27
167.16 K | 108.62
169.58 K | 109.08
171.82 K | 109.17
174.21 K | 110.08
176.43 K | 110.08
178.8 K | 110.97
180.99 K | 111.25
183.33 K | 112.12
185.5 K | 112
187.82 K | 112.78
189.97 K | 112.81
192.26 K | 113.22
194.39 K | 113.72
196.66 K | 114.21
198.77 K | 114.75
201.01 K | 115.05
203.11 K | 115.61
205.34 K | 115.9
207.41 K | 116.35
209.61 K | 116.79
211.67 K | 117.4
213.86 K | 117.52
215.9 K | 118.12
218.07 K | 118.51
220.09 K | 118.79
222.24 K | 119.63
224.25 K | 119.86
226.39 K | 120.61
228.38 K | 121.07
230.5 K | 121.62
232.48 K | 121.93
234.59 K | 122.3
236.55 K | 122.62
238.65 K | 123.75
240.59 K | 123.7
242.68 K | 124.31
244.61 K | 124.72
246.68 K | 125.15
248.6 K | 125.88
250.66 K | 126.37
252.57 K | 126.78
254.62 K | 127.78
256.52 K | 127.81
258.55 K | 128.92
260.45 K | 128.69
262.47 K | 129.62
264.35 K | 129.86
266.37 K | 130.48
268.24 K | 131.47
270.24 K | 131.7
272.11 K | 132.45
274.1 K | 133.44
275.96 K | 133.56
277.94 K | 134.24
279.8 K | 134.7
281.76 K | 135.37
283.62 K | 135.69
285.57 K | 136.15
287.43 K | 137.7
289.37 K | 137.5
291.23 K | 138.84
293.15 K | 139.14
295.01 K | 139.36
296.93 K | 140.12
298.78 K | 140.84
300.68 K | 141.15
302.54 K | 142.6
306.3 K | 143.77
308.17 K | 143.87
310.04 K | 144.87
311.91 K | 146
313.77 K | 146.62
315.63 K | 147.42
